{
  "source": "patent US10053485B2",
  "about": "“Cytotoxic agents that preferentially target leukemia inhibitory factor (LIF) for the treatment of malignancies and as new contraceptive agents” (Evestra, Inc., priority 2015, dated 2018)",
  "format_in_all_cases": "cell-based",
  "key": {"K-562": {"system": "K-562", "test": "NCI-60 screen, Leukemia panel", "conditions": "Homo sapiens, K562, 48 h"}, "[1]": {"system": "human umbilical vein endothelial cells (HUVEC)", "test": "Matrigel in vitro HUVECs tube formation assay (angiogenesis)", "method": "Matrigel in vitro HUVECs tube formation assay: The tube formation assay was performed using 12-well plate coated with 100 μL Matrigel basement membrane matrix (BD Bioscience) per well and polymerized at 37° C. for 30 min. Human umbilical vascular endothelial cells (HUVECs) suspended in M199 medium containing 2% FBS were plated on the Matrigel at a density of 2×10^5 cells/well. […] After 8 h, the Matrigel-induced morphological changes were photographed and the extent of capillary tube formation was evaluated by measuring the total tube length per field."}, "OVCAR-3": {"system": "OVCAR-3", "test": "NCI-60 screen, Ovarian Cancer panel", "conditions": "Homo sapiens, OVCAR-3, 48 h", "method": "EC 330 was also tested using the NCI-60 Screening Methodology. The human tumor cell lines of the cancer screening panel are grown in RPMI 1640 medium containing 5% fetal bovine serum and 2 mM L-glutamine. For a typical screening experiment, cells are inoculated into 96 well microtiter plates in 100 μL at plating densities ranging from 5,000 to 40,000 cells/well depending on the doubling time of individual cell lines. After cell inoculation, the microtiter plates are incubated at 37° C., 5% CO2, 95% air and 100% relative humidity for 24 h prior to addition of experimental drugs. […]\nFollowing drug addition, the plates are incubated for an additional 48 h at 37° C., 5% CO2, 95% air, and 100% relative humidity. […] Bound stain is subsequently solubilized with 10 mM trizma base, and the absorbance is read on an automated plate reader at a wavelength of 515 nm. […] Using the seven absorbance measurements [time zero, (Tz), control growth, (C), and test growth in the presence of drug at the five concentration levels (Ti)], the percentage growth is calculated at each of the drug concentrations levels. Percentage growth inhibition is calculated as: [(Ti−Tz)/(C−Tz)]×100 for concentrations for which Ti>/=Tz [(Ti−Tz)/Tz]×100 for concentrations for which Ti<Tz.\nThree dose response parameters are calculated for each experimental agent. […]"}, "NCI-H332M": {"system": "NCI-H332M", "test": "NCI-60 screen, Non-Small Cell Lung Cancer panel", "conditions": "Homo sapiens, 48 h"}, "EKVX": {"system": "EKVX", "test": "NCI-60 screen, Non-Small Cell Lung Cancer panel", "conditions": "Homo sapiens, 48 h, read-out: GI50 (log10GI50) (converted)"}, "HOP-92": {"system": "HOP-92", "test": "NCI-60 screen, Non-Small Cell Lung Cancer panel", "conditions": "Homo sapiens, HOP-92, 48 h"}, "LNCaP (AR+ Prostate)": {"system": "LNCaP (AR+ Prostate)", "test": "Short term (72 h) cytotoxicity assay"}, "[2]": {"system": "unmodified MCF-7 human breast cancer cells", "test": "LIF specificity assay, unmodified cells", "conditions": "Homo sapiens, MCF7, cytotoxicity"}, "SN12C": {"system": "SN12C", "test": "NCI-60 screen, Renal Cancer panel", "conditions": "Homo sapiens, 48 h"}, "SK-MEL-2": {"system": "SK-MEL-2", "test": "NCI-60 screen, Melanoma panel", "conditions": "Homo sapiens, SK-MEL-2, 48 h"}, "MDA-MB-231 ATCC": {"system": "MDA-MB-231 ATCC", "test": "NCI-60 screen, Breast Cancer panel", "conditions": "Homo sapiens, MDA-MB-231, 48 h"}, "TK-10": {"system": "TK-10", "test": "NCI-60 screen, Renal Cancer panel", "conditions": "Homo sapiens, TK-10, 48 h"}, "[3]": {"conditions": "read-out: GI50 (log10GI50) (converted)"}, "[4]": {"conditions": "read-out: LC50 (log10LC50) (converted)"}},
  "data": [
    {"molecule": "C#CC(F)(F)[C@]1(O)CCC2C3CCC4=CC(=O)CCC4=C3C(c3ccc(C4CC4)cc3)C[C@@]21C", "note": "(stereo partly drawn) [EC330, 17α-(1,1-difluoro-2-propyn-1-yl)-17β-hydroxy-11β-[4-p-(cyclopropyl)phenyl]estra-4,9-dien-3-one]", "values": [
      {"measurement": "GI50", "setting": "K-562; [3]", "result": 2190, "unit": "nM"},
      {"measurement": "CC50", "setting": "K-562; [4]", "result": "> 100000", "unit": "nM"},
      {"measurement": "tube formation", "setting": "[1]; 1 μM concentration, all measured time points", "result": "complete abrogation"},
      {"measurement": "angiogenesis in vitro (tube formation assay)", "setting": "[1]; FIG. 2", "result": "inhibited"},
      {"measurement": "CC50", "setting": "OVCAR-3; [4]", "result": 933, "unit": "nM"},
      {"measurement": "GI50", "setting": "OVCAR-3; SRB, read-out: GI50 (log10GI50) (converted)", "result": 12.9, "unit": "nM"},
      {"measurement": "GI50", "setting": "NCI-H332M; [3]", "result": 3800, "unit": "nM"},
      {"measurement": "CC50", "setting": "NCI-H332M; [4]", "result": "> 100000", "unit": "nM"},
      {"measurement": "GI50", "setting": "EKVX", "result": "< 10", "unit": "nM"},
      {"measurement": "GI50", "setting": "HOP-92; [3]", "result": "< 10", "unit": "nM"},
      {"measurement": "CC50", "setting": "HOP-92; [4]", "result": 19.1, "unit": "nM"},
      {"measurement": "IC50", "setting": "LNCaP (AR+ Prostate)", "result": 53, "unit": "nM"},
      {"measurement": "IC50", "setting": "[2]", "result": 250, "unit": "nM"},
      {"measurement": "GI50", "setting": "SN12C; [3]", "result": 3800, "unit": "nM"},
      {"measurement": "CC50", "setting": "SN12C; [4]", "result": "> 100000", "unit": "nM"},
      {"measurement": "GI50", "setting": "SK-MEL-2; [3]", "result": 2140, "unit": "nM"},
      {"measurement": "CC50", "setting": "SK-MEL-2; [4]", "result": 30200, "unit": "nM"},
      {"measurement": "GI50", "setting": "MDA-MB-231 ATCC; [3]", "result": 550, "unit": "nM"},
      {"measurement": "CC50", "setting": "MDA-MB-231 ATCC; [4]", "result": "> 100000", "unit": "nM"},
      {"measurement": "GI50", "setting": "TK-10; [3]", "result": 2630, "unit": "nM"},
      {"measurement": "CC50", "setting": "TK-10; [4]", "result": "> 100000", "unit": "nM"}
    ]}
  ]
}
